The supplement of paper PMC12463676, “Small-molecule dissolution of stress granules by redox modulation benefits ALS models” (Nature Chemical Biology, 2025)

Key:
lipoamide = compound: NC(=O)CCCCC1CCSS1 [lipoamide]; experiment: thermal stability z-score vs DMSO; higher = more thermally stabilized by treatment; conditions: HeLa, lipoamide concentration 100 µM
Protocol: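 Cellular thermal proteome profiling in HeLa cells. Cells were treated with 100 µM lipoamide for 1 h, with or without 1 mM arsenate for a further 1 h, then heated to ten temperatures (37-66.3 °C), and soluble protein was quantified by TMT mass spectrometry relative to 0.1% DMSO controls. The thermal stability score (sum of log2 fold changes minus the abundance score) was transformed to a z-score; mean of n = 3 experiments.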

potassium arsenate = compound: O=[As]([O-])(O)O.[K+] [potassium arsenate]; experiment: as above; conditions: HeLa; arsenate concentration 1 mM
Protocol: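 Cellular thermal proteome profiling in HeLa cells treated with 1 mM arsenate for 1 h (DMSO pretreatment), heated to ten temperatures (37-66.3 °C). Soluble protein was quantified by TMT mass spectrometry relative to DMSO controls; the thermal stability score was transformed to a z-score; mean of n = 3 experiments.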

[1] = arsenate co-treatment: 1 mM arsenate 1 h
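Further: each temperature applied for 3 min, abundance score taken as mean log2 fold change at the two lowest temperatures, z-score obtained by mean subtraction and division by SD.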

UniProt Q13371, sequence (Q13371 whole entry): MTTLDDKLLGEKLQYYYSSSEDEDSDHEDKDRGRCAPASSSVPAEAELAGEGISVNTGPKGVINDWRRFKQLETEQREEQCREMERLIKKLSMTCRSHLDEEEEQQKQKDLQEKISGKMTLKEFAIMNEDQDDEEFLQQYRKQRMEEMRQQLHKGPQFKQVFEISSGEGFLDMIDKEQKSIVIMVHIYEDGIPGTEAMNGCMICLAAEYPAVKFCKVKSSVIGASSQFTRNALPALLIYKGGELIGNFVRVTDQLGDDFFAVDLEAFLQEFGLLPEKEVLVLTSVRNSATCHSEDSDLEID
UniProt Q96EK7, sequence (Q96EK7 whole entry): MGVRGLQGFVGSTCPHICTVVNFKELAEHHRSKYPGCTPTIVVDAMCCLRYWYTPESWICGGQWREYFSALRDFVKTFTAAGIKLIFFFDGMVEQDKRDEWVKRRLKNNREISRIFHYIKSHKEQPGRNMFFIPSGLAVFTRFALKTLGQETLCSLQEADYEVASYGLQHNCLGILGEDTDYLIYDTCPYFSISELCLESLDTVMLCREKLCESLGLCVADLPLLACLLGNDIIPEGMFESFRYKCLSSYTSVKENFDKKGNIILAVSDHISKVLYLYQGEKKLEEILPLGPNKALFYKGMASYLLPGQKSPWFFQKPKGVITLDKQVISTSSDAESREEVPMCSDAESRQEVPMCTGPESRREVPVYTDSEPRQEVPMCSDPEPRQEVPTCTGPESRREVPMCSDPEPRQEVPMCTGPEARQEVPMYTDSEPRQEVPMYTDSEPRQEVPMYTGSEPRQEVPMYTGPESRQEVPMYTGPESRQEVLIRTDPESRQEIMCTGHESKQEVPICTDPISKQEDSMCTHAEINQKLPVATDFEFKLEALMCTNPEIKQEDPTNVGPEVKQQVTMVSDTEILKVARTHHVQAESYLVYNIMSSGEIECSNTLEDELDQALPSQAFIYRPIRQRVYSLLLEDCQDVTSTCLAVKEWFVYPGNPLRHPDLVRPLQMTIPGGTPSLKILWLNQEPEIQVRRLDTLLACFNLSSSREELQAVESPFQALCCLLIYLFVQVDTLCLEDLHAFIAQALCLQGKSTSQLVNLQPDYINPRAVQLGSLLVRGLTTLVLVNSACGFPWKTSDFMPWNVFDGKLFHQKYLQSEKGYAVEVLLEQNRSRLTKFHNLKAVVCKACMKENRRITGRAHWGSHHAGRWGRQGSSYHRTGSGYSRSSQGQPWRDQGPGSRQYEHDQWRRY
UniProt Q8WWK9, sequence (Q8WWK9 whole entry): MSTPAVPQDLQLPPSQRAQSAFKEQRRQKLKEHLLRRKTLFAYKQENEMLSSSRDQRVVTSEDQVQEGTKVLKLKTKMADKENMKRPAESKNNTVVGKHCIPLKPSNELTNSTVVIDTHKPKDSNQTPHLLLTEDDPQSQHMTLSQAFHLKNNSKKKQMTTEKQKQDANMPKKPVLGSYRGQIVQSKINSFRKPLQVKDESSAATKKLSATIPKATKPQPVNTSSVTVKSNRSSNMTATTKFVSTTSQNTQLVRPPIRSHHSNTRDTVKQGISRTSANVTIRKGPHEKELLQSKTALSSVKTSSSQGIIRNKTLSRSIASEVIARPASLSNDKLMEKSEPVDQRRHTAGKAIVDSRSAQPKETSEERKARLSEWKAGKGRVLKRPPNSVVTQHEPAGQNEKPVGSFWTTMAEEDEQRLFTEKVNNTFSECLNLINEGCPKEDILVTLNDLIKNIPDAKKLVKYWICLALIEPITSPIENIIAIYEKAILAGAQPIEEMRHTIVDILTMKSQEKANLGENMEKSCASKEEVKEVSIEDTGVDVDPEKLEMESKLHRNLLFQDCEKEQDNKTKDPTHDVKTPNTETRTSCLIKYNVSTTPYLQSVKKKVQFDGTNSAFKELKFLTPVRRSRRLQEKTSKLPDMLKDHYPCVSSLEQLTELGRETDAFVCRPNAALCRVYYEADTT
UniProt Q96T37, sequence (Q96T37 whole entry): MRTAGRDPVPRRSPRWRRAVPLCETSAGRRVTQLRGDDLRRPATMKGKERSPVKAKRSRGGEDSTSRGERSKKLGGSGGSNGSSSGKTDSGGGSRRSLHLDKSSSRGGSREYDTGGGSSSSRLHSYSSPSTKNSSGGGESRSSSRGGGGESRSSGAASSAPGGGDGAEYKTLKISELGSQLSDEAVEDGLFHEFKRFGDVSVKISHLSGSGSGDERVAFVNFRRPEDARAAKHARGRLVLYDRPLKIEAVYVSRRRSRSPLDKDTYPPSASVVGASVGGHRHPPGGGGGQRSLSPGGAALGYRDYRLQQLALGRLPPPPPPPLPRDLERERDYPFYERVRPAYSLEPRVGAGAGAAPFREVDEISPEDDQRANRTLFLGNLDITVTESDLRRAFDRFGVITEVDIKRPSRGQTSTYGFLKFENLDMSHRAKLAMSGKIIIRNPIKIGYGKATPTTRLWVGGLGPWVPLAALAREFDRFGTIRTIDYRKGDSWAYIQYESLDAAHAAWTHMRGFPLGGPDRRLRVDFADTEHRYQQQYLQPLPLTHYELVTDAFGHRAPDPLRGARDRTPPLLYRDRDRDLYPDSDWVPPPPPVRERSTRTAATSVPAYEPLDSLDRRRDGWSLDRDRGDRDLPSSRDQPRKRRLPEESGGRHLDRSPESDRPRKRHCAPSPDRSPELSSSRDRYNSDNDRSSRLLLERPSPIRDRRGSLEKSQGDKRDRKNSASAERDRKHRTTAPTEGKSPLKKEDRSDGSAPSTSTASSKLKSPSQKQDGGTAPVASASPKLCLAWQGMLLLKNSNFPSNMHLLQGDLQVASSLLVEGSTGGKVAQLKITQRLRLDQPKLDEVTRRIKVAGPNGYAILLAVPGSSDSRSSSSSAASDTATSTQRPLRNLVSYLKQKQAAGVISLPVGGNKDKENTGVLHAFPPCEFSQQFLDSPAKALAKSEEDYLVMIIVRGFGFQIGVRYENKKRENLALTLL
UniProt O75971, sequence (O75971 whole entry): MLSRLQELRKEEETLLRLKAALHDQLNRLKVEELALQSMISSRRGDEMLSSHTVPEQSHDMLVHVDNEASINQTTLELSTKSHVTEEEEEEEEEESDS
UniProt P17568, sequence (P17568 whole entry): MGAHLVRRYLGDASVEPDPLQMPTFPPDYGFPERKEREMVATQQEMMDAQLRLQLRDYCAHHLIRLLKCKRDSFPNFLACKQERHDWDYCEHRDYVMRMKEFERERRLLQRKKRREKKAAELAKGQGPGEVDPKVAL
UniProt Q32NC0, sequence (Q32NC0 whole entry): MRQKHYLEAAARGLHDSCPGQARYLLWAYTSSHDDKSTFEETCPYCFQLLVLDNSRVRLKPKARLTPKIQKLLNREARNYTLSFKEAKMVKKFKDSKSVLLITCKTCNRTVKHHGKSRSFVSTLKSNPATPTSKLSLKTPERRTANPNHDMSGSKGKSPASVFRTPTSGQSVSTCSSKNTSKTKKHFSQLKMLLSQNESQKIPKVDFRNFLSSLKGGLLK
UniProt Q6UWE0, sequence (Q6UWE0 whole entry): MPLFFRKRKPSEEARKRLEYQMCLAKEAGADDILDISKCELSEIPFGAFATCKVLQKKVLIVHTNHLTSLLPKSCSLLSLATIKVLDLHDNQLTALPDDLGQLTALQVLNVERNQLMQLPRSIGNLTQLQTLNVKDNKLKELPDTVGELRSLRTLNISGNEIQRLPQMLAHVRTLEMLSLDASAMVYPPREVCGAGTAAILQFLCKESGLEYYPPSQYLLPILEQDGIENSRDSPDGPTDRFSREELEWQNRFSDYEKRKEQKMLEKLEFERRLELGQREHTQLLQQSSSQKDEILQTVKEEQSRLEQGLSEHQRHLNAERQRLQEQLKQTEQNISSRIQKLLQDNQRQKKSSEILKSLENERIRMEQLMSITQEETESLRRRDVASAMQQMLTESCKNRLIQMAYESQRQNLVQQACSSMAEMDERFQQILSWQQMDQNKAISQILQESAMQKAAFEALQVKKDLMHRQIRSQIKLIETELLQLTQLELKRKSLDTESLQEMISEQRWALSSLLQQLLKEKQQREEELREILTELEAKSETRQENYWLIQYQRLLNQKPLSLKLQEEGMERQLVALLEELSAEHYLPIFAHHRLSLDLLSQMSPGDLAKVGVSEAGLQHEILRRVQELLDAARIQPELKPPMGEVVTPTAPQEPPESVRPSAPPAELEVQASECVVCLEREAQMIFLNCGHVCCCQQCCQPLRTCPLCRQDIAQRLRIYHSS
UniProt Q14847, sequence (Q14847 whole entry): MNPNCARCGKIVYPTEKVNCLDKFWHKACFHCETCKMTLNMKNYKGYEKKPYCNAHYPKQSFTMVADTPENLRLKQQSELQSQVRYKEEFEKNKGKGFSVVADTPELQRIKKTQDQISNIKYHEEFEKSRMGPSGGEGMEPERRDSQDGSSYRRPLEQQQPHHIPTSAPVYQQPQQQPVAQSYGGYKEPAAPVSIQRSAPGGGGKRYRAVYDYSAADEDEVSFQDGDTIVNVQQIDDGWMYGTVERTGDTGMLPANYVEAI
UniProt P33908, sequence (P33908 whole entry): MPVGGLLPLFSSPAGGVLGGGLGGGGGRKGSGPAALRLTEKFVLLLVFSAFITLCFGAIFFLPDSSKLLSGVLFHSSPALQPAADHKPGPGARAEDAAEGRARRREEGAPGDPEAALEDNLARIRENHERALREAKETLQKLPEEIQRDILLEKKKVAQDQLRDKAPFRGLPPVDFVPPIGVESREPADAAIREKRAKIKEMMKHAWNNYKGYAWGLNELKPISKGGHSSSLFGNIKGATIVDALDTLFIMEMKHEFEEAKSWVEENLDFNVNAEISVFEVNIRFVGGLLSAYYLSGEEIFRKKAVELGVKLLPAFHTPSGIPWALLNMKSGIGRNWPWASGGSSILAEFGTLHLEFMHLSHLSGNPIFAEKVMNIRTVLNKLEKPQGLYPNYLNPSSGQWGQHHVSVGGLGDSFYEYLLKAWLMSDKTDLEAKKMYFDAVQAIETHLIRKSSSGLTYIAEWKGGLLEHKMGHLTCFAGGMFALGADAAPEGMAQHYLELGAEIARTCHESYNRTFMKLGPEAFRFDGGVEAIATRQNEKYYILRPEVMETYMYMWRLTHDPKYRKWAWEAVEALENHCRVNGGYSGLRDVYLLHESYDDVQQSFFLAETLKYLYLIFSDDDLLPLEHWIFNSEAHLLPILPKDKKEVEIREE

Target | thermal stability z-score (lipoamide; [1]) | thermal stability z-score (lipoamide; arsenate co-treatment: none) | thermal stability z-score (potassium arsenate)
RAB4A (UniProt P20338) | 0.387 | 0.311 | 0.408
GGPS1 (UniProt O95749) | 0.498 | 0.521 | -0.212
CD59 (UniProt P13987) | 0.714 | 0.698 | 3.07
PARD3 (UniProt Q8TEW0) | 0.02 | 0.0237 | -0.00597
FLNA (UniProt P21333) | 0.22 | 0.544 | -0.4
RAB22A (UniProt Q9UL26) | 0.482 | 0.207 | -0.396
PPP6R2 (UniProt O75170) | -0.348 | 0.143 | -0.937
ZNF622 (UniProt Q969S3) | -0.153 | -0.393 | 1.39
MYO10 (UniProt Q9HD67) | 0.223 | 0.44 | 0.432
LASP1 (UniProt Q14847) | 0.387 | 0.383 | -0.178
VPS28 (UniProt Q9UK41) | 0.513 | 0.681 | 0.492
NDUFB7 (UniProt P17568) | -0.619 | -0.28 | -0.462
FAM120B (UniProt Q96EK7) | 0.0177 | -0.0542 | -0.081
MAN1A1 (UniProt P33908) | 0.547 | 0.362 | 0.104
PDCL (UniProt Q13371) | 1.05 | 0.207 | -0.321
GRPEL2 (UniProt Q8TAA5) | -0.105 | -0.123 | 0.107
SERBP1 (UniProt Q8NC51) | 0.533 | 0.5 | -0.0206
GNAS | 0.278 | 0.172 | 0.0562
ACYP1 (UniProt P07311) | -0.11 | -0.304 | -0.451
ANP32A (UniProt P39687) | 0.324 | 0.51 | 0.197
ANXA11 (UniProt P50995) | 3.8 | 3.23 | 1.77
CTNNB1 (UniProt P35222) | 0.545 | 0.798 | 0.308
CCDC86 (UniProt Q9H6F5) | -0.342 | -0.895 | -2.01
PEX16 (UniProt Q9Y5Y5) | -1.58 | -0.719 | -0.441
EDF1 (UniProt O60869) | 0.657 | 0.578 | 0.199
MTMR1 (UniProt Q13613) | -0.545 | -0.803 | -1.27
NOL11 (UniProt Q9H8H0) | 0.118 | 0.00868 | -0.0716
TPRG1L (UniProt Q5T0D9) | -0.302 | 0.421 | 0.921

Target | thermal stability z-score (lipoamide; [1]) | thermal stability z-score (lipoamide; arsenate co-treatment: none) | thermal stability z-score (potassium arsenate)
LIN54 (UniProt Q6MZP7) | 0.0767 | -0.0219 | 0.0147
ARL1 (UniProt P40616) | -0.148 | -0.943 | 0.669
NFS1 (UniProt Q9Y697) | -0.356 | -0.438 | -1.15
EDEM1 (UniProt Q92611) | -0.0592 | -0.0491 | 0.0795
CCNT1 (UniProt O60563) | 0.149 | 0.145 | 0.178
ZWILCH (UniProt Q9H900) | -0.3 | -0.512 | -0.55
NDUFB11 (UniProt Q9NX14) | 0.566 | 0.514 | 0.94
MRPS9 (UniProt P82933) | 0.316 | 0.203 | 0.195
AFTPH (UniProt Q6ULP2) | -0.18 | 0.15 | 0.102
CEBPZ (UniProt Q03701) | 0.161 | -0.141 | -1.01
CWC27 (UniProt Q6UX04) | 0.0242 | -0.348 | -0.344
CKAP2 (UniProt Q8WWK9) | -0.00358 | 0.0789 | -0.222
DNAJC19 (UniProt Q96DA6) | 0.522 | 0.211 | 0.253
EXOC7 (UniProt Q9UPT5) | -0.927 | -0.435 | -0.227
PDE4DIP (UniProt Q5VU43) | 0.0302 | -0.0224 | -0.0411
PTDSS1 (UniProt P48651) | -1.63 | -1.23 | -0.375
SNAPC5 (UniProt O75971) | -0.0463 | 0.216 | 0.158
KDM1A (UniProt O60341) | 1.9 | 2.21 | -1.3
PGS1 (UniProt Q32NB8) | 0.522 | 0.683 | -0.266
CAMKMT (UniProt Q7Z624) | 0.0977 | -0.0333 | -0.235
C18ORF21 (UniProt Q32NC0) | -0.42 | -0.189 | -2.28
NUDT16 (UniProt Q96DE0) | 0.938 | 0.232 | -0.335
NCAPD2 (UniProt Q15021) | -0.565 | -0.251 | 0.369
RBM15 (UniProt Q96T37) | -0.454 | -0.0697 | -0.321
LRSAM1 (UniProt Q6UWE0) | -0.763 | -0.714 | -0.676
TCAF1 (UniProt Q9Y4C2) | 0.246 | 0.355 | 0.396
HELZ2 (UniProt Q9BYK8) | -0.0529 | -0.115 | -0.0872
